Measurements: patent publication US11083735B2, “Methods for treating sleep disorders, sleep disturbances, and related symptoms using aminosterol compositions” (Enterin, Inc., priority 2017, dated 2021)

What was measured:
[1] = Duration of the aminosterol-induced response after a single oral dose; assay type: in vivo, human; settings: single 200 mg oral dose
Text: The invention is also based on the discovery of unexpected and unprecedented activity of orally or nasally administered squalamine and related aminosterols (e.g., aminosterol 1436). The activity relates to stimulating a sequence of events within the human GI tract with therapeutic value. With respect to this activity, the sequence of events stimulated by an aminosterol such as squalamine or aminosterol 1436 involves the induction of an intestinal secretory response followed by a period of “small intestinal quieting,” and the subsequent passage of a normally formed bowel movement. These events are best explained as a consequence of the stimulation of a heretofore unknown physiological gastrointestinal response, in this invention shown to be controlled or initiated by an effective oral dose of an aminosterol such as squalamine or the related aminosterol, 1436 (Aminosterol-Induced GI Response). The activity relates to stimulating the neural connections between the enteric nervous system and the brain with therapeutic value, which can thereby impact sleeping disorders, sleeping disturbances, or related symptoms, as described herein. With respect to this activity, the sequence of events stimulated by an aminosterol involves the entrainment of the circadian clock, the suprachiasmatic nucleus, and an improvement in the quality of sleep. […]

dogs, and rodents = settings: administered orally; cited from earlier work
isolated colons = experiment: Isolated perfused colon, migrating muscular contractions (aged mouse; loperamide in young mouse); settings: loperamide introduced into the lumen of a young mouse
Text: Isolated colons were mounted in an apparatus that permits continuous perfusion through the lumen, and the monitoring of the velocity, frequency and pressure of migrating muscular contractions (MMCs). Similar to the experience in humans, aging in mice is associated with diminished colonic peristaltic activity.
In humans, opiates markedly diminish GI motility and suppress fluid secretion causing constipation. […] When loperamide is introduced into the lumen of a young mouse colonic peristalsis is inhibited. When squalamine is added in presence of continued loperamide perfusion, the dysmotility is overridden.

[2] = single and repeat intravenous administration; cited from earlier work
[3] = in vivo; cited from earlier work

SMILES: CC(C)[C@@H](CC[C@@H](C)[C@H]1CC[C@H]2[C@@H]3[C@H](O)C[C@H]4C[C@@H](NCCCNCCCCNCCCN)CC[C@]4(C)[C@H]3CC[C@]12C)OS(=O)(=O)O [Aminosterol 1436]
- duration of the aminosterol-induced response [1]: about 4 days
- anorectic activity (dogs, and rodents): no anorectic activity

SMILES: CN(C)C(=O)C(CCN1CCC(O)(c2ccc(Cl)cc2)CC1)(c1ccccc1)c1ccccc1 [loperamide, reference compound]
- colonic peristalsis (isolated colons): inhibited

SMILES: CC(C)[C@@H](CC[C@@H](C)[C@H]1CC[C@H]2[C@@H]3[C@H](O)C[C@H]4C[C@@H](NCCCNCCCCN)CC[C@]4(C)[C@H]3CC[C@]12C)OS(=O)(=O)O.C[C@H](O)C(=O)O.O [squalamine lactate]
- well tolerated dose [2]: at least 300 mg/m^2
- oral bioavailability [3]: poorly bioavailable orally
